The record followed here is ChEMBL document CHEMBL5331068, “Briarane-type diterpenoids, the inhibitors of osteoclast formation by interrupting Keap1-Nrf2 interaction and activating Nrf2 pathway” (Eur J Med Chem, 2023).

Series [1] in a line: Cytotoxicity against C57BL/6 mouse BMDM cells incubated for 48 hrs by MTT assay. The class given is toxicity, cell-based. Conditions: BMDM cells (bone marrow-derived macrophages).
Series [2] concerns BMDM. In words: Anti-osteoclastogenesis activity in RANKL-induced C57BL/6 mouse BMDM cells assessed as elimination of TRAP-positive multinucleated osteoclast incubated for 7 days in the presence of M-CSF by TRAP-staining based microscopic analysis. The format is functional, cell-based. Conditions: dose 1-10 µM, time 7.0 day.
Series [3] has as its system BMDM. In words: Anti-osteoclastogenesis activity in RANKL-induced C57BL/6 mouse BMDM cells assessed as suppression of early stage osteoclast differentiation at 10 uM incubated from day 1 to day 3 in the presence of M-CSF by TRAP-staining based microscopic analysis. The format is functional, cell-based. Conditions: time 2.0 day.
Series [4] concerns BMDM. In words: Anti-osteoclastogenesis activity in RANKL-induced C57BL/6 mouse BMDM cells assessed as inhibition of NFATc1 translocation into nuclei incubated for 3 days by DAPI staining based confocal microscopic analysis. The following applies: time 3.0 day. The format is functional, cell-based.
The test system of series [5] is BMDM. The series is described as follows: Anti-osteoclastogenesis activity in RANKL-induced C57BL/6 mouse BMDM cells assessed as decrease in bone resorption pit number incubated for 10 days in the presence of M-CSF by inverted microscopic analysis. The following applies: dose 1-10 µM, time 10.0 day. The format is functional, cell-based.
Series [6] deals with BMDM. The series is described as follows: Anti-osteoclastogenesis activity in RANKL-induced C57BL/6 mouse BMDM cells assessed as decrease in bone resorption pit area incubated for 10 days in the presence of M-CSF by inverted microscopic analysis. The following applies: dose 1-10 µM, time 10.0 day. The format is functional, cell-based.
The subject of series [7] is BMDM. In words: Anti-osteoclastogenesis activity in RANKL-induced C57BL/6 mouse BMDM cells assessed as inhibition of bone resorption by measuring downregulation of Cathepsin K expression at 5 to 10 uM in the presence of M-CSF by Western blot analysis. The class given is functional, cell-based. The following applies: dose 5-10 µM.
For series [8], the system named is BMDM. The series is described as follows: Anti-osteoclastogenesis activity in RANKL-induced C57BL/6 mouse BMDM cells assessed as increase in HO-1 expression at 5 to 10 uM in the presence of M-CSF by Western blot analysis. The class given is functional, cell-based. Conditions: dose 5-10 µM. Background: A western blot detects proteins with antibodies after separation by electrophoresis.

The target of series [9] is T1, Nuclear factor erythroid 2-related factor 2 (Mus musculus) (UniProt Q60795).
T1 sequence (whole entry): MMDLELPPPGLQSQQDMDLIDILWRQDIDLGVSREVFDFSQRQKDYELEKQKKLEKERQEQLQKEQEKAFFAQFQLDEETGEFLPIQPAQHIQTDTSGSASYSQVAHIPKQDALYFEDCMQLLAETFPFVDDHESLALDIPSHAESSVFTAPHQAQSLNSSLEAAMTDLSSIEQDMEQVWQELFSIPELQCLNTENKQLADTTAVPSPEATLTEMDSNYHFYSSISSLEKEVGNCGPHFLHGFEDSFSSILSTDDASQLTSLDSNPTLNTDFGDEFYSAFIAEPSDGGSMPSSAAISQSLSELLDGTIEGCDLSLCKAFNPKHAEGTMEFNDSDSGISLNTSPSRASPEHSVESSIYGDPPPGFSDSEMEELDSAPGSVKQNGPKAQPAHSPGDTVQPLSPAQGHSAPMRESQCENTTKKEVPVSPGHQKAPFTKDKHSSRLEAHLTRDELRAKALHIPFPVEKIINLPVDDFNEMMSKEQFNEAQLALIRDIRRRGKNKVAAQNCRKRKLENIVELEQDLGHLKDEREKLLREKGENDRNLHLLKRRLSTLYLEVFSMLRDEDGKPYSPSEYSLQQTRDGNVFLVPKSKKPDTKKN
In words: Stabilization of Nrf2 in mouse RAW264.7 cells assessed as increase in Nrf2 protein level preincubated with compound for 6 hrs followed by CHX addition and measured after 45 mins by Western blot analysis. The class given is cell-based. The following applies: time 405.0 min.

Series [10] has as its target T1, Nuclear factor erythroid 2-related factor 2 (Mus musculus). The series is described as follows: Stabilization of Nrf2 in mouse RAW264.7 cells assessed as decrease in Nrf2 ubiquitination at 10 uM incubated for 48 hrs by Western blot based Co-immunoprecipitation analysis. The class given is cell-based.
Series [11] relates to RAW264.7. In words: Anti-osteoclastogenesis activity in RANKL-induced mouse RAW264.7 cells transfected with Nrf2 siRNA assessed as increase in NQO-1 expression level incubated for 3 days by Western blot analysis. The following applies: time 3.0 day. The format is functional, cell-based.
Series [12] relates to RAW264.7. In words: Anti-osteoclastogenesis activity in RANKL-induced mouse RAW264.7 cells transfected with Nrf2 siRNA assessed as increase in c-fos expression level incubated for 3 days by Western blot analysis. The format is functional, cell-based. Conditions: time 3.0 day.
Series [13] has as its system RAW264.7. In words: Anti-osteoclastogenesis activity in RANKL-induced mouse RAW264.7 cells transfected with Nrf2 siRNA assessed as increase in NFATc1 expression level incubated for 3 days by Western blot analysis. The format is functional, cell-based. The following applies: time 3.0 day.
Series [14] has as its system BMDM. The series is described as follows: Anti-osteoclastogenesis activity in C57BL/6 mouse BMDM cells transfected with Nrf2 siRNA assessed as inhibition of RANKL-induced osteoclastogenesis at 10 uM incubated for 5 days in the presence of M-CSF by TRAP-staining based microscopic analysis. The class given is functional, cell-based. The following applies: time 5.0 day.

Series [15] addresses MAP kinase p38 (Mus musculus) (UniProt P47811+O08911+Q9WUI1+Q9Z1B7). In words: Inhibition of RANKL-induced p38 MAPK phosphorylation in C57BL/6 mouse BMDM cells incubated for 60 mins by Western blot analysis. The format is cell-based.
The target of series [16] is Transcription factor p65 (Mus musculus) (UniProt Q04207). The series is described as follows: Inhibition of RANKL-induced p65 NF-kappaB phosphorylation in C57BL/6 mouse BMDM cells incubated for 60 mins by Western blot analysis. The format is cell-based.
Series [17] has as its target T2, NF-kappa-B inhibitor alpha (Mus musculus) (UniProt Q9Z1E3).
T2 sequence (whole entry): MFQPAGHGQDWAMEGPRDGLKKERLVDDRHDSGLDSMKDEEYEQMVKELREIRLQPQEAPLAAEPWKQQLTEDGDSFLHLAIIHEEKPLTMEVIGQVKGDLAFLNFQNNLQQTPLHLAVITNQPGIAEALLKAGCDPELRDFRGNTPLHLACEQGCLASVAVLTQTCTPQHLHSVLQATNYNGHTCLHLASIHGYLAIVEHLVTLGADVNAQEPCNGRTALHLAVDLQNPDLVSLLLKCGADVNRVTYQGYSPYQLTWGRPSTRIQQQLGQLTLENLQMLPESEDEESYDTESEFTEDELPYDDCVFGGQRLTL
In words: Inhibition of RANKL-induced IkappaBalpha phosphorylation in C57BL/6 mouse BMDM cells transfected with Nrf2 siRNA at 10 uM incubated for 60 mins by Western blot analysis. The class given is cell-based.

Series [18] concerns the target Kelch-like ECH-associated protein 1 (Homo sapiens, UniProt Q14145). In words: Binding affinity to recombinant human Keap1 by SPR analysis. In general terms: Surface plasmon resonance follows binding to a sensor surface in real time, without labels.
Series [19] addresses Keap1/Nrf2 (Homo sapiens) (UniProt Q16236+Q14145). In words: Disruption of 16mer biotinylated Nrf2 (unknown origin)-Keap1 kelch domain (unknown origin) protein-protein interaction upto 100 uM by Biolayer Interferometry assay. For orientation: Biolayer interferometry detects binding as a change in optical thickness at a sensor tip.
In series [20] the target is Kelch-like ECH-associated protein 1/Nuclear factor erythroid 2-related factor 2 (Mus musculus) (UniProt Q60795+Q9Z2X8). The series is described as follows: Disruption of Nrf2 -Keap1 protein-protein interaction in RANKL-induced C57BL/6 mouse BMDM cells incubated for 24 hrs by Western blot based co-immunoprecipitation analysis. The class given is cell-based.
Series [21] relates to Danio rerio. The series is described as follows: Anti osteoporosis activity in prednisone induced AB Zebrafish model of osteopenia assessed as increase in bone mineralization at 5 to 10 uM administered after 3 days post fertilization and measured after 6 days by Alizarin red staining based analysis. Conditions: dose 5-10 µM, time 6.0 day. The class given is functional, organism-based.

Each structure is given as a SMILES string. Calls of active or inactive are those of the source. No cut-off for these calls is given here. A value given as a limit tells only on which side of the number the result lay.

Kelch-like ECH-associated protein 1/Nuclear factor erythroid 2-related factor 2 (Mus musculus), sequence (Q9Z2X8 whole entry, looked up, one chain of several): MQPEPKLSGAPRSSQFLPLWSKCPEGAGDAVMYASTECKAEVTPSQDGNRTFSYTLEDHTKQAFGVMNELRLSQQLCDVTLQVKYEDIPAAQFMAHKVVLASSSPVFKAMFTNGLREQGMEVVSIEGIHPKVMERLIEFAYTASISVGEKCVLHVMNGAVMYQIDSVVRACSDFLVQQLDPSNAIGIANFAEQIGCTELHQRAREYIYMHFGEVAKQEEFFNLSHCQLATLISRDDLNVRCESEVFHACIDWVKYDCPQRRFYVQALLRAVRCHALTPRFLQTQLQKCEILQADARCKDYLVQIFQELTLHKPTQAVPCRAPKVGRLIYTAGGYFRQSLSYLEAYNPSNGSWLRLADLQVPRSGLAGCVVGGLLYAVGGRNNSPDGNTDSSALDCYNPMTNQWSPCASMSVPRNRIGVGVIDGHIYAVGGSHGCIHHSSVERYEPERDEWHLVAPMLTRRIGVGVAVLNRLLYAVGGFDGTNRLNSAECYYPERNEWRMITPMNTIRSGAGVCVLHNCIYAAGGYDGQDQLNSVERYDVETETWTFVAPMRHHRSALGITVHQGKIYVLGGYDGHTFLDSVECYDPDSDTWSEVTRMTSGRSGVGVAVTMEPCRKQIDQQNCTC
Keap1/Nrf2 (Homo sapiens), sequence (Q14145 whole entry, looked up, the tested form may be a part): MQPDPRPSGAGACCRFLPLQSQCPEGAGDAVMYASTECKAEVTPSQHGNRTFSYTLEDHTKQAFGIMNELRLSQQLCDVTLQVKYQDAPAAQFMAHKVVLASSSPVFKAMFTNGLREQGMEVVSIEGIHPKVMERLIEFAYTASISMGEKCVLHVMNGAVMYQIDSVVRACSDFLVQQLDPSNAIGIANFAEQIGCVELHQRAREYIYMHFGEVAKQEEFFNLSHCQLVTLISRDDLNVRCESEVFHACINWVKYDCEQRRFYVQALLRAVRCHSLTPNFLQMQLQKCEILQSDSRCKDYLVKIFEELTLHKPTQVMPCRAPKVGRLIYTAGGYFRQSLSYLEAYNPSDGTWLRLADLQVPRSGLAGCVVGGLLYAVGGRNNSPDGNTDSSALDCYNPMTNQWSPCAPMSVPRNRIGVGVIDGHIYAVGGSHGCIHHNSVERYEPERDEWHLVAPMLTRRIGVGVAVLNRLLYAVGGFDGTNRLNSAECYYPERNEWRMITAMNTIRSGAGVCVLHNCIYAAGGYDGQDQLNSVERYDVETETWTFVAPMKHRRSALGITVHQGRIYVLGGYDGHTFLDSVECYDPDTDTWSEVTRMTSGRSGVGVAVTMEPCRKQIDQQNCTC
Keap1/Nrf2 (Homo sapiens), sequence (Q16236 whole entry, looked up, the tested form may be a part): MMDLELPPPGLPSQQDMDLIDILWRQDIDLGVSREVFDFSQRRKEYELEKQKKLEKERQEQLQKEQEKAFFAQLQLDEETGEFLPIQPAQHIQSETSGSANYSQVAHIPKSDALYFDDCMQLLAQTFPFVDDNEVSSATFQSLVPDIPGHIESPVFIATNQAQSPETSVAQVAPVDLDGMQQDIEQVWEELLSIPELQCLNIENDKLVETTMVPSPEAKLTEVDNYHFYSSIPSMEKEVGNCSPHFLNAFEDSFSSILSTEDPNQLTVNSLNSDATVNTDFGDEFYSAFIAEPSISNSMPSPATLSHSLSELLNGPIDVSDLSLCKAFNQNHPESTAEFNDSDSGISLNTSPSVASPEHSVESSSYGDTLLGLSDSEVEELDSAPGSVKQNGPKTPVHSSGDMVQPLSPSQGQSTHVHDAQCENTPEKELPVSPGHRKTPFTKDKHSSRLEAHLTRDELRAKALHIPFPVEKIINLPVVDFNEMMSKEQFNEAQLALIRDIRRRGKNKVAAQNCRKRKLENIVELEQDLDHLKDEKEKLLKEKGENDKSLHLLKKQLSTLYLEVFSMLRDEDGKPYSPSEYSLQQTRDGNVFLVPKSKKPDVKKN
Kelch-like ECH-associated protein 1, sequence (Q14145 whole entry, the tested form may be a part): as the sequence (Q14145 whole entry, looked up, the tested form may be a part) above
Transcription factor p65 (Mus musculus), sequence (Q04207 whole entry): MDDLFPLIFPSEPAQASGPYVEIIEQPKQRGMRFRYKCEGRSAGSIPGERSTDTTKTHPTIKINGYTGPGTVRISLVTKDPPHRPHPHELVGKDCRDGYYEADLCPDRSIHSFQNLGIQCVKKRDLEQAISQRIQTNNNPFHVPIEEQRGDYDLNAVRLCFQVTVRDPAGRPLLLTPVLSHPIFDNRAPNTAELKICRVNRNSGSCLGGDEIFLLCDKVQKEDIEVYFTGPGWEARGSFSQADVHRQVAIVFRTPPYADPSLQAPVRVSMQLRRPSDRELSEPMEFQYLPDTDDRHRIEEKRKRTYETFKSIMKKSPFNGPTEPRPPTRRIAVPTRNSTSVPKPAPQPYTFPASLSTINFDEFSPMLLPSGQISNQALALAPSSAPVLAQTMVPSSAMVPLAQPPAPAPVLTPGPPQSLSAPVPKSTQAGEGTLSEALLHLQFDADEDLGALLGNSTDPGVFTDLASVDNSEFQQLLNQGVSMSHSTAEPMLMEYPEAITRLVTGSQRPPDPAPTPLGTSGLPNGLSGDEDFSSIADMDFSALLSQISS

As to `C=C1[C@H]2O[C@]3([C@@H](C)C(=O)O[C@H]3[C@H]1Cl)[C@@H](OC(C)=O)[C@H]1[C@]3(CC[C@H](OC(C)=O)[C@]1(C)[C@@H](OC(C)=O)[C@@H]2OC(C)=O)CO3`, in [1], the CC50 at 48 h was > 50 µM. Besides, the Activity result in series [2], in series [5] and in series [6] was “Dose-Dependent Effect” each time. The result in [3], in series [4], in series [7], in [8], in series [9] and in [10] was Active. Besides, the result in series [18], in [19], in [20] and in series [21] was Active. The result in [11], in [12], in series [13] and in [14] was inactive. In addition, the inhibition entry in series [15] and in series [16] was “Active” in each case. In addition, the inhibition result in [17] was “inactive”.

As a reminder, the CC50 is the concentration that lowers cell viability or growth by half. Lower therefore signals greater toxicity to the cells.
